According to ChEMBL document CHEMBL1201862, “PubChem BioAssay data set” (2004):
Activity calls are given as the source filed them.

Columns and labels:
[1] = target: Estrogen receptor beta (Homo sapiens, UniProt Q92731);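 also: recombinant ER-beta bound to coactivator SRC1 peptide in presence of estradiol agonist; inhibitors block coactivator peptide binding and lower the FRET signal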
[2] = target: Eukaryotic translation initiation factor 4H (Homo sapiens, UniProt Q15056); assay: eIF4H binding inhibition – biochemical, uHTS, fluorescence polarization, translation initiation inhibitor project, primary screen (AID 2012)
[3] = HEK-293T viability loss after treatment – luminescence, T-cell screen hits, cytotoxicity control for TCR NF-kB inhibitor project, dose response (AID 489026); type: functional, cell-based;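 also: cells exposed to compound about 14 hours before the viability readout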
[4] = tested on: BJ; assay: BJ-TERT-LT-ST fibroblast viability loss – cell-based, RAS-independent, luminescence, dose response (AID 1935); type: functional; details: Homo sapiens;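 also: BJ fibroblasts immortalized with TERT plus LT and ST oncogenes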
[5] = DRD fibroblast viability loss – cell-based, non-viral oncogenic, luminescence, dose response (AID 1934); type: functional; details: Homo sapiens
[6] = target: Estrogen receptor (Homo sapiens, UniProt P03372);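 also: potency for inhibiting coactivator peptide recruitment to the receptor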
Estrogen receptor, sequence (P03372 whole entry): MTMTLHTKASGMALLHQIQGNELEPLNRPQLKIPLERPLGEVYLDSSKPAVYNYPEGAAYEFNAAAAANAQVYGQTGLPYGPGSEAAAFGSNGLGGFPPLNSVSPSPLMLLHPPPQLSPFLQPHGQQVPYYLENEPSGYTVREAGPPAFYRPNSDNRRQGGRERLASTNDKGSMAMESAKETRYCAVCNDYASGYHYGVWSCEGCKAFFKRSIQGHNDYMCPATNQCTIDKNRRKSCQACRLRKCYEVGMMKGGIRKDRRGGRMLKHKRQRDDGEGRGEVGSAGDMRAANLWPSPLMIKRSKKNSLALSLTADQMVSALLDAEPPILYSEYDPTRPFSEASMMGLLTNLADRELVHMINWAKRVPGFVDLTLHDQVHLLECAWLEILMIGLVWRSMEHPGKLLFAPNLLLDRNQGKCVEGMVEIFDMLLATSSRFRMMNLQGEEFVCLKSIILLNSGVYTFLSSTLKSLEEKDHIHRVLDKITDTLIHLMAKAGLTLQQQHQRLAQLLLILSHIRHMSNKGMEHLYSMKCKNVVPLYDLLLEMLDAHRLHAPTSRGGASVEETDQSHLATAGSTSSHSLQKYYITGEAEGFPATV

[7] = tested on: BJ; assay: cells; type: functional, cell-based; details: Homo sapiens
[8] = target: Polyadenylate-binding protein 1 (Homo sapiens, UniProt P11940); assay: blockers of PABP interaction with poly(A) – biochemical, fluorescence polarization, […] (AID 2014)
[9] = tested on: BJ; assay: BJ-TERT fibroblast viability loss – cell-based, RAS-independent, luminescence, dose response (AID 1933); type: functional; details: Homo sapiens
[10] = target: T1, Kappa-type opioid receptor (Homo sapiens, UniProt P41145); type: functional
T1 sequence (P41145 whole entry): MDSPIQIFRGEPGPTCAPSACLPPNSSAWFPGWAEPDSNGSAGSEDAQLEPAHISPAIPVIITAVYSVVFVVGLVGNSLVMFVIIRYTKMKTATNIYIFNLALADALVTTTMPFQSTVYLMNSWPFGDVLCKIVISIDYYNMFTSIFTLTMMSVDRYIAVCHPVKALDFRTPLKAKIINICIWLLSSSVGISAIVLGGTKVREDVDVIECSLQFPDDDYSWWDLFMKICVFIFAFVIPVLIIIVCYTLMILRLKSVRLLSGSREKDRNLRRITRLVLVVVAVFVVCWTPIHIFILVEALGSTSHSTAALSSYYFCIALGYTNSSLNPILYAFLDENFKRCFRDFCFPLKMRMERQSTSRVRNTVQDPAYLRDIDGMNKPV

[11] = target: T2, Delta-type opioid receptor (Homo sapiens, UniProt P41143); assay: HTS Image-Based Screen for Antagonists of the DOR Receptor. [Related pubchem assays (depositor defined):AID1777, AID1785, AID1786, AID2133]; type: functional
T2 sequence (P41143 whole entry): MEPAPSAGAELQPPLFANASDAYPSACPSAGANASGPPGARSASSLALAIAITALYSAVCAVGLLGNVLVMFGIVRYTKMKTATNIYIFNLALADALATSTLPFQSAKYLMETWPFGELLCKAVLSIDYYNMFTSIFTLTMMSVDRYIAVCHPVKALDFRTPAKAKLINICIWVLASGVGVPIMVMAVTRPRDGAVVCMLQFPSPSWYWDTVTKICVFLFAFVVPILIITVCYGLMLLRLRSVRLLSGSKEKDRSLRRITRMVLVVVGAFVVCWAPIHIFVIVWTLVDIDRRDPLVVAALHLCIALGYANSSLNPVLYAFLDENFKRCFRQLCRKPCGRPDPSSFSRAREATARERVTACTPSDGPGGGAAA

[12] = target: T2, Delta-type opioid receptor; assay: DOR agonists, SAR follow-up, image-based (AID 2370); type: functional
[13] = target: T2, Delta-type opioid receptor; assay: HTS Image-Based Screen for Agonists of the DOR Receptor. [Related pubchem assays (depositor defined):AID1777, AID1786, AID2133]; type: functional
[14] = target: T1, Kappa-type opioid receptor; type: functional; remark: listed apart in the source
[15] = target: T1, Kappa-type opioid receptor; assay: SAR analysis of small molecule agonists of the kappa opioid receptor via a luminescent beta-arrestin assay. [Related pubchem assays (depositor defined):AID1777, AID1786, AID1966, AID2133, AID2136, AID2348, AID2352, AID2357, AID2359, AID2370, AID2420, AID2478, AID2491, AID2492, AID2493, AID2497, AID2498, AID2500, AID449737, AID488822, AID488842]; type: functional
[16] = target: T3, Mu-type opioid receptor (Homo sapiens, UniProt P35372); assay: mu opioid receptor activators, image-based, SAR follow-up (AID 2352); type: functional
T3 sequence (P35372 whole entry): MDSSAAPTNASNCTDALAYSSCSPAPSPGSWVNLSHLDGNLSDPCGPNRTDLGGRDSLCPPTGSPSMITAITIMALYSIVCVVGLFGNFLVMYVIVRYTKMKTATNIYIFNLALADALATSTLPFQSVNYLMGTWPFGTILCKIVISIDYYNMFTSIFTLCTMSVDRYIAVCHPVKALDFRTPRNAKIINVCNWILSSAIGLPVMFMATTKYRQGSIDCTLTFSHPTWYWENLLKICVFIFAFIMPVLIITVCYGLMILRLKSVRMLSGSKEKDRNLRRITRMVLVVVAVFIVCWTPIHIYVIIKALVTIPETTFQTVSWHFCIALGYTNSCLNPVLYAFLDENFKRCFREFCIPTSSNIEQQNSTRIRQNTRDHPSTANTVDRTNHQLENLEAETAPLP

[17] = target: T1, Kappa-type opioid receptor; assay: kappa opioid receptor blockers, image-based, SAR follow-up (AID 2348); type: functional
[18] = target: T3, Mu-type opioid receptor; assay: mu opioid receptor blockers – image-based, SAR follow-up (AID 2420); type: functional;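 also: compounds added before stimulation of receptor with agonist DAMGO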
[19] = target: T3, Mu-type opioid receptor; assay: HTS Image-Based Screen for Agonists of the MOR Receptor. [Related pubchem assays (depositor defined):AID1777, AID1785, AID1786, AID2133]; type: functional
[20] = target: T1, Kappa-type opioid receptor; assay: kappa opioid receptor activation potency – imaging, image-based, SAR follow-up (AID 2359); type: functional
[21] = target: T2, Delta-type opioid receptor; assay: delta opioid receptor blockers – image-based, SAR follow-up (AID 2357); type: functional
[22] = luciferase reporter signal suppression in cells – H4 neuroglioma cells, luminescence, dose response (AID 1990); type: functional, cell-based
[23] = Luminescence Cell-Based Dose Response HTS to Identify Inhibitors of 5'UTR Stem-Loop Driven Prion Protein mRNA Translation in H4 Neuroglioblastoma Cells. [Related pubchem assays: 1827 (Project Summary), 1813 (Primary HTS)]; type: functional
[24] = HEK-293T cell viability reduction – luminescence, B-cell screen hits, cytotoxicity control for BCR NF-kB inhibitor project, dose response (AID 489021); type: functional, cell-based;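 also: HEK-293T cells carrying an NF-kB luciferase reporter; cells exposed to compound for about 14 hours before viability readout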
[25] = alpha-synuclein stem-loop luciferase translation blockers – H4 neuroglioma cells, luminescence, confirmation (AID 1988); type: functional, cell-based
[26] = target: T1, Kappa-type opioid receptor; assay: kappa opioid receptor blockers, cell-based, luminescence, beta-arrestin, SAR follow-up (AID 2285); type: functional
[27] = target: Peroxisome proliferator-activated receptor gamma/Nuclear receptor coactivator 1 (Homo sapiens, UniProt P37231); type: functional;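 also: agonist potency as compounds enhance coactivator SRC-1 recruitment to PPARgamma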
[28] = target: T4, Zinc finger protein mex-5 (Caenorhabditis elegans, UniProt Q9XUB2); assay: potency of MEX-5 RNA-binding blockers – biochemical, C. elegans, fluorescence polarization, dose response (AID 1960)
T4 sequence (Q9XUB2 whole entry): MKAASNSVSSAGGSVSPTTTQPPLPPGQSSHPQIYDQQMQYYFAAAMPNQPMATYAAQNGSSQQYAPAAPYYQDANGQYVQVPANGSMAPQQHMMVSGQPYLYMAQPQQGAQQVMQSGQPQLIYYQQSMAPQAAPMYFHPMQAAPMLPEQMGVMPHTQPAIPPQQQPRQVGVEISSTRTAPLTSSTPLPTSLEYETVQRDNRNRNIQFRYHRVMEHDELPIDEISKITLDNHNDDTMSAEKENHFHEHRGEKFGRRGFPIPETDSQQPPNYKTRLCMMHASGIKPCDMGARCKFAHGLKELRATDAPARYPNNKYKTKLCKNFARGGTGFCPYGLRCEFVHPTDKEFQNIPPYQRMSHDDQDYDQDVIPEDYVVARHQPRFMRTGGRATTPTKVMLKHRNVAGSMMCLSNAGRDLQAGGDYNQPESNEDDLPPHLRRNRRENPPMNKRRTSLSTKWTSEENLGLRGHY

[29] = target: Peroxisome proliferator-activated receptor gamma/Nuclear receptor coactivator 3 (Homo sapiens, UniProt P37231); type: functional;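 also: agonist potency for raising coactivator recruitment to the receptor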
Peroxisome proliferator-activated receptor gamma/Nuclear receptor coactivator 3, sequence (P37231 whole entry): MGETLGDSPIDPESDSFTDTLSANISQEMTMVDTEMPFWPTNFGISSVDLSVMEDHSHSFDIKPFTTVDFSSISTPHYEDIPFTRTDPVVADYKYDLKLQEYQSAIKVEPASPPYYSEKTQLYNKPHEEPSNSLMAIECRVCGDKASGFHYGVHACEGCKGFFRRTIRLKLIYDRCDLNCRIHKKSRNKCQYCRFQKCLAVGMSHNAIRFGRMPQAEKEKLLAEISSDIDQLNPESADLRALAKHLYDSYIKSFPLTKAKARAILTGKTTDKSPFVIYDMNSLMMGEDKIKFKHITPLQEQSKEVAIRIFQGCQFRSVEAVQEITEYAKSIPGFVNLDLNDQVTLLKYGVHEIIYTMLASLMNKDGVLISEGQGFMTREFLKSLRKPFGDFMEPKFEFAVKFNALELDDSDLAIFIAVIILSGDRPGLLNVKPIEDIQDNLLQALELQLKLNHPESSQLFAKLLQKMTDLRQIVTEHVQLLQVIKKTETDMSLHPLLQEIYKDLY
Peroxisome proliferator-activated receptor gamma/Nuclear receptor coactivator 3, sequence (Q9Y6Q9 whole entry, further chain): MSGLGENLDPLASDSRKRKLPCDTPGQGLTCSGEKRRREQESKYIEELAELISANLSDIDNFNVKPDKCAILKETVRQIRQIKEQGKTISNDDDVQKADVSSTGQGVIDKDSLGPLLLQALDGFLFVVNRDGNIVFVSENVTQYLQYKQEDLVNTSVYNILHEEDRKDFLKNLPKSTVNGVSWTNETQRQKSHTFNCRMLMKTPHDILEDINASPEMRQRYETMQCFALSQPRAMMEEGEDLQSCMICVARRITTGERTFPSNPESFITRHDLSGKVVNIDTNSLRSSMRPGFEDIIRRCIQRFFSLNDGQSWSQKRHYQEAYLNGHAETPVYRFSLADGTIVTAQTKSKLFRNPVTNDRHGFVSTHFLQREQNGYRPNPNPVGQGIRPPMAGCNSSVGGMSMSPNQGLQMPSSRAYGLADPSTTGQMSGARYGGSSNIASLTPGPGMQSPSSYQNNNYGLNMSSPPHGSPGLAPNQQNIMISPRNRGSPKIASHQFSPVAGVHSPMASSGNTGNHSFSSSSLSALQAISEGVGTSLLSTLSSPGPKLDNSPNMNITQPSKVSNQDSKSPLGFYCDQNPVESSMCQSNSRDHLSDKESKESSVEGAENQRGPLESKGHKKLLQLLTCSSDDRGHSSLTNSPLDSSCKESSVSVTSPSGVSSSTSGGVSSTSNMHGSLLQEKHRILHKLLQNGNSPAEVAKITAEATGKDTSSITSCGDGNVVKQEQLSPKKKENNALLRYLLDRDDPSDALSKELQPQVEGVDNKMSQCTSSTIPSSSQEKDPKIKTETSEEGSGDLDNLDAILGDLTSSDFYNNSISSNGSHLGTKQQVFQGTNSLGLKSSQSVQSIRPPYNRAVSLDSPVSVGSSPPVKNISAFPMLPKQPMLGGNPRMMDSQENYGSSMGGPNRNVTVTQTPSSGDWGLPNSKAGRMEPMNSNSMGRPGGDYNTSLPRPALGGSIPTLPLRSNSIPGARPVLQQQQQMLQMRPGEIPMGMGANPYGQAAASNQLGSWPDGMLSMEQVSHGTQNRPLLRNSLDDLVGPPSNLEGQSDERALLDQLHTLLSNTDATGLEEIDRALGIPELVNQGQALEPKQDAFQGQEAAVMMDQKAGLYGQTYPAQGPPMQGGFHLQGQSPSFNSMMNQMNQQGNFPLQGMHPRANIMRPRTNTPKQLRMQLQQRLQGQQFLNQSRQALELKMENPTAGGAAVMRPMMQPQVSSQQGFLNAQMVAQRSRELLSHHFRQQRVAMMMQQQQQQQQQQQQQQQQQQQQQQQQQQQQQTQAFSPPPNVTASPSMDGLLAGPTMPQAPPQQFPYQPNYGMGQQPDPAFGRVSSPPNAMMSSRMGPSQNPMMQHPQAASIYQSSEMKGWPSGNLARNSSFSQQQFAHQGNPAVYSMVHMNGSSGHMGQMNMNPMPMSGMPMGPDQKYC

[30] = tested on: Streptococcus; assay: GAS UMAA2166 growth inhibition – luminescence, BacTiterGlo, counter-screen for streptokinase expression inhibitor project, dose response (AID 1915); type: functional, organism-based;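 also: potency for reduction of bacterial viability or growth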
[31] = target: T5, Streptokinase A (Streptococcus pyogenes serotype M1, UniProt P10520); assay: viability-normalized secreted streptokinase activity reduction – plasminogen activation absorbance, OD405, dose response (AID 1914); type: functional, Streptococcus pyogenes M1 GAS;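 also: secreted streptokinase activity via plasminogen activation per viability signal from cell pellet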
T5 sequence (P10520 whole entry): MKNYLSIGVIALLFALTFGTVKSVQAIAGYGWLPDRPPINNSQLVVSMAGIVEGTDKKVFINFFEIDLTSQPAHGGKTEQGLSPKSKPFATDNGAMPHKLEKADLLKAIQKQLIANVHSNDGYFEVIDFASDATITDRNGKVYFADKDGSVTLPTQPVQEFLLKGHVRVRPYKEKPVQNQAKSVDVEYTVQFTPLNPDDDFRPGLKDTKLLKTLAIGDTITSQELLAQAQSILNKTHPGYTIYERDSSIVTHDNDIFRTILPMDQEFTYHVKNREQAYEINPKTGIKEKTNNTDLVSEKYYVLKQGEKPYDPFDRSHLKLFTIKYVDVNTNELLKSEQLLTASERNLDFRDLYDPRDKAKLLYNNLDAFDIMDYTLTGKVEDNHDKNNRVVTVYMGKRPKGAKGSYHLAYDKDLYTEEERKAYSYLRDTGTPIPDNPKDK

[32] = target: T6, RNA-binding protein pos-1 (Caenorhabditis elegans, UniProt G5EF15); assay: disruptors of C. elegans POS-1 RNA interaction – biochemical, fluorescence polarization, dose response (AID 1964);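 also: purified POS-1 fused to maltose binding protein made in E. coli; potency of compounds blocking POS-1 binding to fluorescent RNA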
T6 sequence (G5EF15 whole entry): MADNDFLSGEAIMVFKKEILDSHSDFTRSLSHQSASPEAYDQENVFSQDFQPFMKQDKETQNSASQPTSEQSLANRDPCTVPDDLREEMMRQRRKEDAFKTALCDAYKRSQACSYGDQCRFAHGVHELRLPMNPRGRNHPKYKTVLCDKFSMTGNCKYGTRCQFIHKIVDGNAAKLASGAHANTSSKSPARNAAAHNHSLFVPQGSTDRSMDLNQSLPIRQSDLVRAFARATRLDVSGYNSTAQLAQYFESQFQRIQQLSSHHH

[33] = target: Scavenger receptor class B member 1 (Mus musculus, UniProt Q61009); assay: mouse SR-BI DiI-HDL uptake blockers – ldlA[mSR-BI] cells, fluorescence, cherry pick, dose response (AID 493194); type: functional, cell-based;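 also: cellular uptake of fluorescent DiI-labeled HDL measured as cell fluorescence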
Scavenger receptor class B member 1, sequence (Q61009 whole entry): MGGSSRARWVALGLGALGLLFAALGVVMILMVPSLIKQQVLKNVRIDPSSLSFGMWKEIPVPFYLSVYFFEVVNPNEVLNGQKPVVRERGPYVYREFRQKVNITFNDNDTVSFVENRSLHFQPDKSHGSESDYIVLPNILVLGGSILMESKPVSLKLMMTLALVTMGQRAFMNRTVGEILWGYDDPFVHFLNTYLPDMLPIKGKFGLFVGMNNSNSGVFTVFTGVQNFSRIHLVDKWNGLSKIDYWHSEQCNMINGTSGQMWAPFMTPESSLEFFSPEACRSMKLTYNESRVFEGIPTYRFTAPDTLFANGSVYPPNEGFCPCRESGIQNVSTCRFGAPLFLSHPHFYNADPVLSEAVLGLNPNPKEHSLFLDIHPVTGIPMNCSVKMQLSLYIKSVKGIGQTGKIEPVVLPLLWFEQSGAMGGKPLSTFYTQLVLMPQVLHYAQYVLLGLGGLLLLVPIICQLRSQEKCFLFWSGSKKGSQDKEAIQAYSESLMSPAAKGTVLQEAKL

[34] = tested on: Streptococcus sp. 'group A'; assay: Streptococcus pyogenes SK(-)GAS viability under kanamycin – luminescence, BacTiterGlo, confirmation, counter-screen for streptokinase expression inhibitor project, dose response (AID 1900); type: functional, organism-based
[35] = target: Peroxisome proliferator-activated receptor gamma/Nuclear receptor coactivator 2 (Homo sapiens, UniProt P37231); type: functional;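 also: agonist potency for raising coactivator recruitment to the receptor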
[36] = target: Acyl-homoserine lactone acylase PvdQ (Pseudomonas aeruginosa (strain LESB58), UniProt Q9I194); assay: PvdQ acylase enzyme activity blockers – biochemical, fluorescence, plate reader and imaging, cherry-picks, dose response (AID 493231)

Estrogen receptor beta, sequence (Q92731 whole entry): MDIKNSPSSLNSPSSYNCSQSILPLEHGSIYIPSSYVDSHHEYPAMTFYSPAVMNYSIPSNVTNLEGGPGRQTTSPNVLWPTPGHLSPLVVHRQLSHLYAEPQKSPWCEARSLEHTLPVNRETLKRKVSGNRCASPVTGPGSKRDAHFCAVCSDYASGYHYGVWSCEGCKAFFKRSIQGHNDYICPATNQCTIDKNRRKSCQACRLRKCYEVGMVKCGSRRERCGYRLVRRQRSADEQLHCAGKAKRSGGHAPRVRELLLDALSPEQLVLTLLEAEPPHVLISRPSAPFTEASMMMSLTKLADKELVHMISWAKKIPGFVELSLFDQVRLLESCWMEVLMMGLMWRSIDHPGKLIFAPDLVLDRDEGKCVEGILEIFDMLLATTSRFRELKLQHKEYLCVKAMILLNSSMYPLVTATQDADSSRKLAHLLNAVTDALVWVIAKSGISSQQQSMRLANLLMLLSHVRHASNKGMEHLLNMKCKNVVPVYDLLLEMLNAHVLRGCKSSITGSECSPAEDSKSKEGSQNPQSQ

Question: Which IC50 [1] does the source give for C/C=C/COC(=O)c1[nH]c2c(c1C)C(=O)CC(c1ccco1)C2 (configuration not stated) here?
Answer: Its IC50 is > 50 µM (not active).

Question: And the IC50 [2]?
Answer: Its IC50 is 21.7 µM (active).

Question: What about the IC50 [3] of the same compound?
Answer: Its IC50 is > 80 µM (inactive).

Question: What about the EC50 [4] of the same compound?
Answer: The EC50 was 4.74 µM (inconclusive).

Question: And the EC50 [5]?
Answer: The EC50 was 2.76 µM (active).

Question: What about the IC50 [6] of the same compound?
Answer: The IC50 was 24.7 µM (active).

Question: What about the EC50 [7] of the same compound?
Answer: The EC50 was 2.76 µM (active).

Question: What about the IC50 [8] of the same compound?
Answer: The IC50 was 45.8 µM (active).

Question: And the EC50 [9]?
Answer: The EC50 was 2.84 µM (inconclusive).

Question: With COc1ccc(CN(CC2CCCO2)C(=O)CN2C(=O)COc3ccccc32)cc1OC (configuration not stated) as the compound, how does the EC50 [10] read?
Answer: Its EC50 is 11.5 µM.

Question: And the IC50 [11]?
Answer: The IC50 was > 32 µM (inactive).

Question: And the EC50 [12]?
Answer: The EC50 was > 32 µM (inactive).

Question: What about the EC50 [13] of the same compound?
Answer: Its EC50 is > 32 µM (inactive).

Question: What about the EC50 [14] of the same compound?
Answer: The EC50 was 11 µM.

Question: What about the EC50 [15] of the same compound?
Answer: Its EC50 is > 10 µM (inactive).

Question: What about the EC50 [16] of the same compound?
Answer: The EC50 was > 32 µM (inactive).

Question: And the IC50 [17]?
Answer: Its IC50 is > 32 µM (inactive).

Question: What about the IC50 [18] of the same compound?
Answer: The IC50 was > 32 µM (inactive).

Question: What about the EC50 [19] of the same compound?
Answer: Its EC50 is > 32 µM (inactive).

Question: What about the EC50 [20] of the same compound?
Answer: The EC50 was 4.88 µM (active).

Question: What about the IC50 [21] of the same compound?
Answer: Its IC50 is > 32 µM (inactive).

Question: Which results are given for Cc1ccc(C(=O)NNC(=O)CCCN2C(=O)/C(=C/c3ccccc3Cl)SC2=S)cc1?
Answer: EC50 [22]: 10.8 µM (active); EC50 [23]: > 120 µM (not active); IC50 [24]: > 80 µM (inactive); EC50 [25]: 14 µM (active)

Question: Which EC50 [12] does the source give for Oc1c(C=Nc2cccc3cccnc23)sc2ccccc12 here?
Answer: Its EC50 is > 32 µM (inactive).

Question: And the IC50 [26]?
Answer: Its IC50 is 8.77 µM (active).

Question: And the EC50 [16]?
Answer: The EC50 was > 32 µM (inactive).

Question: What about the IC50 [17] of the same compound?
Answer: Its IC50 is 0.533 µM (active).

Question: What about the IC50 [18] of the same compound?
Answer: Its IC50 is 0.897 µM (active).

Question: And the EC50 [20]?
Answer: The EC50 was > 32 µM (inactive).

Question: And the IC50 [21]?
Answer: Its IC50 is 1.01 µM (active).

Question: What does the source list for Cc1cc(C)c2c(c1)NC(c1cc3c(cc1Br)OCO3)C1CC=CC21 (configuration not stated)?
Answer: EC50 [27]: > 79.4 µM (not active); EC50 [28]: > 300 µM (not active); EC50 [29]: > 79.4 µM (not active); EC50 [30]: 114 µM (active); EC50 [31]: > 150 µM (not active); EC50 [32]: > 300 µM (not active); AC50 [33]: 19 µM (active); EC50 [34]: 5.11 µM (active); EC50 [35]: > 79.4 µM (not active)

Question: Which AC50 [36] does the source give for O=[N+]([O-])c1ccc(Sc2ccccc2Cl)nc1 here?
Answer: Its AC50 is 33.2 µM (active).
